Experimental data from patent US6693100B1, “Pharmaceutical compositions for treating psoriasis” (priority 1999, dated 2004).

How the values were obtained:
psoriasis [1] = details: cited from earlier work
[2] = pH of reconstituted and diluted Cardioxane solution for infusion; format: physicochemical
Method: Cardioxane® is available in 36 ml brown glass vials. Each vial contains 500 mg lyophilised active substance, the hydrochloric acid salt of dexrazoxane. For reconstitution the contents of each vial is dissolved in 25 ml sterile water for injection. The contents will dissolve within a few minutes under gentle agitation. The pH of the resulting solution is approx. pH 1.6.
For infusion the solution needs to be further diluted. Preferred are sodium lactate UP (0.16M) or Ringer-Lactate BP for infusion. Both solutions give an infusion fluid with an acceptable pH.

psoriasis [3] = assay: Clinical trial case reports: Cardioxane intravenous drip infusion in individual psoriasis patients (Examples 1-3); format: in vivo, human
Description: The disease started after mental stress (loss of near person) with a rash on the hairy part of the head. From the very onset of the disease the patient received intensive treatment with vitamins B12, B6, B2, and calcium. They had artificial hyperthermia with pyrogenal injections, methotrexate, various ointments (e.g. salicylic ointment) under a dermatologist's observation at a specialised clinic. In spite of the treatment the psoriatic rash was spreading over the trunk, upper and lower extremities and it was accompanied by a marked general itch. The patient had practically no remissions. Concurrent diseases were grade II hypertension and chronic cholecystopancreatitis.
At the first examination the patient complained about itching all over the body (resulting in insomnia) and pain in the large joints (mainly knees). The skin on the back, buttocks, chest and arms was covered with a erythematous papular and pustular rash with a white coating (desquamation). A similar though less intense rash was seen on the legs. The patient's general status, the haematological and biochemical profiles were within normal.
On the first and the second day of the treatment cycle the patient received the first doses of Cardioxane® (dexrazoxane.HCl) at 500 mg each day by intravenous drip infusion. […] The itch practically disappeared after the next dose of Cardioxane® therapy at 1000 mg on day 16. […] The patient slept well for the first time in a long disease period. The effect was still preserved at the examination on day 29 and day 30 when the patient was given the last two injections of Cardioxane® at 1500 mg each.
This patient had suffered from generalised psoriasis for 25 years. The rash first appeared on the head and the right upper limb to spread over the trunk and upper limbs later. The patient had received therapies similar to the patient described in Example 1. In addition they received UV therapy, peloids, sulfurated hydrogen baths, but without lasting effect. The patient had no concurrent illness except asthenia, sinus arrhythmia and left ventricular hypertrophy. The skin on the back, lumbar region and shoulders was covered with merged erythematous papular, bullar and desquamating lesions. The rash on the lateral chest walls and on the lower limbs was mainly erythematous and less marked. The skin lesions covered about 50% of the body surface.
The patient was given 6 intravenous drip injections with Cardioxane® according to the following schedule:
On day 1 and day 2 each 500 mg Cardioxane®,
on day 15 and day 16 each 1000 mg Cardioxane®,
and on day 29 and day 30 each 1500 mg Cardioxane®.
The psoriatic rash appeared on the hairy part of the head and neck to spread further over the body. The patient received insolation with but a temporary effect. The patient had had 4 hospitalisations to receive therapy with vitamins, calcium, and various ointments.
At the first examination on day 1 the patient presented with continuous erythematous papular psoriatic rash with desquamation on the front abdominal wall (below the submammal fold), the inguioileac, the lumbosacral, the gluteal regions and the lower limbs, severe itch, and scraping tubular breathing (asthmatic bronchitis). Of note was also a marked increase in the eosinophile count.
The patient received 6 intravenous drip injections of Cardioxane® according to the protocol given in Example 2. […] The lower half of the abdomen as well as the upper gluteal quadrants were practically free of rash.

[4] = human, in vivo
Method: (§1) The efficacy and tolerability of dexrazoxane in patients with refractory psoriasis was assessed in a clinical study.
(§2) After screening, eligible patients received 500 mg of Cardioxane® by intravenous infusion on each of two consecutive days. They were reviewed 7 and 14 days after the first day of treatment. The patients received the second cycle of treatment, which consisted of either 500 mg Cardioxane® by intravenous infusion, on each of two consecutive days (days 15 and 16, in this case), if a complete response had occurred, or 1000 mg Cardioxane® by intravenous infusion, on each of two consecutive days (days 15 and 16, in this case), if an incomplete response had occurred.
(§3) A third cycle of treatment was given after the same interval (days 29 and 30, in this case).
This neutropenia disappeared after another week, and the counts were normal from then on. All other patients had normal white blood cell counts. The assessment of toxicity was according to the WHO criteria: grade 0 (non-toxic, a count of more than 4×10E9 leukocytes per liter), grade 1 (mild) to grade 4 (most severe).

refractory psoriasis [5] = assay: Clinical study of efficacy of dexrazoxane in patients with refractory psoriasis, Psoriasis Area and Severity Index (Example 4); format: in vivo, human
Method: as §1, §2, §3
The primary efficacy parameter was the percentage reduction in skin area and severity affected by psoriasis, as determined by the standardised assessment of the Psoriasis Area and Severity Index (PASI).
Seven patients have been enrolled in the study and all patients have completed a follow-up period of two weeks. At the beginning of the treatment, the PASI-scores ranged between 23.1 and 44.1, with a mean score of 31.9. […] At the end of the third treatment cycle, the PASI-scores ranged between 3.4 and 29.7, with a mean score of 11.4.

refractory psoriasis [6] = assay: Separate longer study of three patients with refractory psoriasis; format: in vivo, human
Description: This patient, who previously suffered distressing refractory psoriasis, can be treated with conventional emollients. Dexrazoxane therefore has the potential to provide remarkable long term relief from refractory psoriasis and a low level of side effects.

[7] = British Journal of Dermatology (1980) 102, 307
[8] = Example 3 patient, examination on day 30
[9] = at 11 weeks after the start of the therapy
[10] = patients of the clinical trial (general statement)

## CC(CN1CC(=O)NC(=O)C1)N1CC(=O)NC(=O)C1 (racemic) [razoxane, 1,2-bis(3,5-dioxopiperazin-1-yl)-propane]
Psoriasis [1]; [7]
  efficacy in psoriasis: relatively good efficacy
  tolerability in psoriasis patients: good tolerability
Psoriasis [1]; Horton and Wells, British Journal of Dermatology (1983) 109, 669-673
  most frequently seen side effect: neutropenia

## CC(CN1CC(=O)NC(=O)C1)N1CC(=O)NC(=O)C1 (stereo not drawn) [Cardioxane]
[2]; 500 mg vial dissolved in 25 ml sterile water for injection
  pH of the resulting solution: ~1.6
[2]; 4 reconstituted vials diluted with 100 ml Ringer-Lactate BP, total 200 ml
  pH: 2.14
[2]; 4 reconstituted vials diluted with 100 ml Sodium lactate UP (0.16 M), total 200 ml
  pH: 3.80
[2]; 4 reconstituted vials diluted with 300 ml Ringer-Lactate BP, total 400 ml
  pH: 2.85
[2]; 4 reconstituted vials diluted with 300 ml Sodium lactate UP (0.16 M), total 400 ml
  pH: 4.47
[2]; 4 reconstituted vials diluted with 400 ml Ringer-Lactate BP, total 500 ml
  pH: 3.19
[2]; 4 reconstituted vials diluted with 500 ml Ringer-Lactate BP, total 600 ml
  pH: 3.45
[2]; 4 reconstituted vials diluted with 500 ml Sodium lactate UP (0.16 M), total 600 ml
  pH: 4.66
Psoriasis [3]; Example 1 patient, after 1000 mg dose on day 16
  arthralgia: complete disappearance of anthralgia
Psoriasis [3]; Example 1 patient, after any of the injections (500, 1000, 1500 mg)
  adverse events: no adverse events
Psoriasis [3]; Example 1 patient, 500 mg i.v. on days 1 and 2
  itch: amelioration of itch several hours after the first
Psoriasis [3]; Example 2 patient, 6 i.v. drip injections 500-1500 mg
  side effects: no side effects
Psoriasis [3]; Example 2 patient, examination on day 15 and day 29
  erythema: mild amelioration of erythema on the back
Psoriasis [3]; Example 3 patient, at 2 or 3 days after the first injection
  skin itch: complete disappearance of skin itch
Psoriasis [3]; Example 3 patient, examination on day 15
  adverse events: no adverse events
Psoriasis [3]; [8]
  adverse events: No adverse events were reported
  complete regression of the rash: about 80%
[4]
  leukocyte count in the patient with leukopenia: approximately 3×10E9 cells per liter
  leukopenia incidence: only one was diagnosed with mild, reversible leukopenia
  serious adverse events: no serious adverse events were reported
  toxicity grade according to World Health Organisation criteria: grade I
  vomiting, nausea, or diarrhoea: No cases of vomiting, nausea, or diarrhoea were recorded
Refractory psoriasis [5]; [9]
  maximum reduction in PASI: 88%
  mean reduction in PASI: 65%
Refractory psoriasis [5]; compared to treatment with cyclosporine A used previously in the clinic
  relief of symptoms associated with psoriatic arthritis: better and faster relief
Refractory psoriasis [5]; one month after the last injection
  remission: most of the patients are still in remission
Refractory psoriasis [5]; patient 1/HH, visit v1 (start of treatment)
  PASI score: 23.1
Refractory psoriasis [5]; patient 1/HH, visit v4
  PASI score: 11.3
Refractory psoriasis [5]; patient 1/HH, visit v7
  PASI score: 7.7
Refractory psoriasis [5]; patient 1/HH, visit v9
  PASI score: 6.5
Refractory psoriasis [5]; patient 1/HH, visit v10
  PASI score: 6.5
Refractory psoriasis [5]; patient 1/HH, visit v11
  PASI score: 5.6
Refractory psoriasis [5]; patient 2/MR, visit v1 (start of treatment)
  PASI score: 43.6
Refractory psoriasis [5]; patient 2/MR, visit v4
  PASI score: 36.3
Refractory psoriasis [5]; patient 2/MR, visit v7
  PASI score: 23.1
Refractory psoriasis [5]; patient 2/MR, visit v9
  PASI score: 15.6
Refractory psoriasis [5]; patient 2/MR, visit v10
  PASI score: 12.3
Refractory psoriasis [5]; patient 2/MR, visit v11
  PASI score: 14.0
Refractory psoriasis [5]; patient 3/MZ, visit v1 (start of treatment)
  PASI score: 29.8
Refractory psoriasis [5]; patient 3/MZ, visit v4
  PASI score: 18.4
Refractory psoriasis [5]; patient 3/MZ, visit v7
  PASI score: 11.6
Refractory psoriasis [5]; patient 3/MZ, visit v9
  PASI score: 9.7
Refractory psoriasis [5]; patient 3/MZ, visit v10
  PASI score: 7.1
Refractory psoriasis [5]; patient 3/MZ, visit v11
  PASI score: 6.5
Refractory psoriasis [5]; patient 4/PH, visit v1 (start of treatment)
  PASI score: 27.0
Refractory psoriasis [5]; patient 4/PH, visit v4
  PASI score: 18.6
Refractory psoriasis [5]; patient 4/PH, visit v7
  PASI score: 13.5
Refractory psoriasis [5]; patient 4/PH, visit v9
  PASI score: 10.8
Refractory psoriasis [5]; patient 4/PH, visit v10
  PASI score: 12.0
Refractory psoriasis [5]; patient 4/PH, visit v11
  PASI score: 5.2
Refractory psoriasis [5]; patient 5/PZ, visit v1 (start of treatment)
  PASI score: 29.1
Refractory psoriasis [5]; patient 5/PZ, visit v4
  PASI score: 16.9
Refractory psoriasis [5]; patient 5/PZ, visit v7
  PASI score: 9.9
Refractory psoriasis [5]; patient 5/PZ, visit v9
  PASI score: 9.3
Refractory psoriasis [5]; patient 5/PZ, visit v10
  PASI score: 7.8
Refractory psoriasis [5]; patient 5/PZ, visit v11
  PASI score: 3.4
Refractory psoriasis [5]; patient 6/FJ, visit v1 (start of treatment)
  PASI score: 44.1
Refractory psoriasis [5]; patient 6/FJ, visit v4
  PASI score: 24.8
Refractory psoriasis [5]; patient 6/FJ, visit v7
  PASI score: 20.3
Refractory psoriasis [5]; patient 6/FJ, visit v9
  PASI score: 15.6
Refractory psoriasis [5]; patient 6/FJ, visit v10
  PASI score: 15.6
Refractory psoriasis [5]; patient 6/FJ, visit v11
  PASI score: 15.3
Refractory psoriasis [5]; patient 7/DJ, visit v1 (start of treatment)
  PASI score: 26.6
Refractory psoriasis [5]; patient 7/DJ, visit v4
  PASI score: 23.6
Refractory psoriasis [5]; patient 7/DJ, visit v7
  PASI score: 23.0
Refractory psoriasis [5]; patient 7/DJ, visit v9
  PASI score: 21.8
Refractory psoriasis [5]; patient 7/DJ, visit v10
  PASI score: 28.5
Refractory psoriasis [5]; patient 7/DJ, visit v11
  PASI score: 29.7
Refractory psoriasis [5]; seven patients, end of third treatment cycle
  mean PASI score at the end of the third treatment cycle: 11.4
Refractory psoriasis [5]; seven patients, one patient absolutely resistant
  response to the treatment: Most of the patients did respond to the treatment

## CC(CN1CC(=O)NC(=O)C1)N1CC(=O)NC(=O)C1 (stereo not drawn) [dexrazoxane, d-isomer of 1,2-bis(3,5-dioxopiperazin-1-yl)-propane]
Psoriasis [3]; [10]
  itch: diminished several hours after the first administration
  regression of the skin lesions: 25-30%
[4]
  serious side effects: No serious side effects have been reported
Refractory psoriasis [6]; some patients (summary statement)
  duration of relief from refractory psoriasis: up to at least one year
Refractory psoriasis [6]; three patients with refractory psoriasis, after one year
  long term freedom from lesions and symptoms: one patient is still relatively free of lesions and symptoms after one year
